Measurements reported in PMC5218480 (PLoS ONE, 2017).

Tested on: MV-4-11 cells
Assay: Gene expression microarray analysis (Affymetrix PrimeView) and GSEA
Assay type: cell-based, human
Design: RFU PODN (11730768_x_at) / Fold change /veh PODN (11730768_x_at) / RFU LINC00158 (11744669_a_at) / Fold change /veh LINC00158 (11744669_a_at) / RFU DUSP10 (11751237_a_at) / Fold change /veh DUSP10 (11751237_a_at) / RFU ID3 (11757404_x_at) / Fold change /veh ID3 (11757404_x_at) / RFU PLEKHG5 (11737974_s_at) / Fold change /veh PLEKHG5 (11737974_s_at) / RFU LRRC4B (11730491_at) / Fold change /veh LRRC4B (11730491_at) / RFU GIMAP4 (11747438_a_at) / Fold change /veh GIMAP4 (11747438_a_at) / RFU KRT8 (11758183_x_at) / Fold change /veh KRT8 (11758183_x_at) / RFU CNN1 (11734310_a_at) / Fold change /veh CNN1 (11734310_a_at) / RFU VPS37D (11726825_at) / Fold change /veh VPS37D (11726825_at) / RFU C10orf10 (11716522_x_at) / Fold change /veh C10orf10 (11716522_x_at) / RFU KIR2DL2 /// KIR2DL4 /// KIR2DL5A /// KIR2DL5B /// KIR2DS1 /// KIR2DS2 /// KIR2DS3 /// KIR2DS4 /// KIR3DL3 /// KIR3DL3 /// KIR3DS1 (11738374_at) / Fold change /veh KIR2DL2 /// KIR2DL4 /// KIR2DL5A /// KIR2DL5B /// KIR2DS1 /// KIR2DS2 /// KIR2DS3 /// KIR2DS4 /// KIR3DL3 /// KIR3DL3 /// KIR3DS1 (11738374_at) / RFU C1QL1 (11718748_at) / Fold change /veh C1QL1 (11718748_at) / RFU TMPRSS4 (11747572_a_at) / Fold change /veh TMPRSS4 (11747572_a_at) / RFU HAMP (11756126_x_at) / Fold change /veh HAMP (11756126_x_at) / RFU RNFT2 (11725882_a_at) / Fold change /veh RNFT2 (11725882_a_at) / RFU NR4A2 (11747474_a_at) / Fold change /veh NR4A2 (11747474_a_at) / RFU ABCC12 (11746883_a_at) / Fold change /veh ABCC12 (11746883_a_at) / RFU TMEM136 (11760407_x_at) / Fold change /veh TMEM136 (11760407_x_at) / RFU CLDN22 /// WWC2 (11732394_at) / Fold change /veh CLDN22 /// WWC2 (11732394_at) / RFU HLA-DPB1 (11760878_x_at) / Fold change /veh HLA-DPB1 (11760878_x_at) / RFU SPINT1 (11716480_a_at) / Fold change /veh SPINT1 (11716480_a_at) / RFU GAP43 (11754022_s_at) / Fold change /veh GAP43 (11754022_s_at) / RFU A4GNT (11735810_at) / Fold change /veh A4GNT (11735810_at) / RFU PRB3 (11715151_x_at) / Fold change /veh PRB3 (11715151_x_at) / RFU TUBB4B (11761932_at) / Fold change /veh TUBB4B (11761932_at) / RFU CAPN14 (11732068_a_at) / Fold change /veh CAPN14 (11732068_a_at) / RFU TMCC2 (11721928_a_at) / Fold change /veh TMCC2 (11721928_a_at) / RFU IRGQ (11745062_a_at) / Fold change /veh IRGQ (11745062_a_at) / RFU FAM174B (11720279_a_at) / Fold change /veh FAM174B (11720279_a_at) / RFU TMPRSS4 (11748680_a_at) / Fold change /veh TMPRSS4 (11748680_a_at) / RFU FAM212B (11763350_a_at) / Fold change /veh FAM212B (11763350_a_at) / RFU PLEKHG5 (11743358_a_at) / Fold change /veh PLEKHG5 (11743358_a_at) / RFU ZSCAN30 (11745921_a_at) / Fold change /veh ZSCAN30 (11745921_a_at) / RFU CMKLR1 (11741424_a_at) / Fold change /veh CMKLR1 (11741424_a_at) / RFU LOC101060620 /// MAPK8IP1 (11723275_at) / Fold change /veh LOC101060620 /// MAPK8IP1 (11723275_at) / RFU SPTSSB (11747773_x_at) / Fold change /veh SPTSSB (11747773_x_at) / RFU PRSS12 (11739890_at) / Fold change /veh PRSS12 (11739890_at) / RFU BIN1 (11741810_x_at) / Fold change /veh BIN1 (11741810_x_at) / RFU WNT11 (11732464_a_at) / Fold change /veh WNT11 (11732464_a_at) / RFU C10orf10 (11716521_a_at) / Fold change /veh C10orf10 (11716521_a_at) / RFU C5orf56 (11738089_at) / Fold change /veh C5orf56 (11738089_at) / RFU CYB561 (11721691_x_at) / Fold change /veh CYB561 (11721691_x_at) / RFU ANKRD19P (11752326_a_at) / Fold change /veh ANKRD19P (11752326_a_at) / RFU OR2T12 /// OR2T33 /// OR2T8 (11738714_s_at) / Fold change /veh OR2T12 /// OR2T33 /// OR2T8 (11738714_s_at) / RFU VCAN (11748164_a_at) / Fold change /veh VCAN (11748164_a_at) / RFU JSRP1 (11732532_at) / Fold change /veh JSRP1 (11732532_at) / RFU KRTAP10-11 (11738290_x_at) / Fold change /veh KRTAP10-11 (11738290_x_at) / RFU MYO3A (11730013_a_at) / Fold change /veh MYO3A (11730013_a_at) / RFU EBF3 (11725865_a_at) / Fold change /veh EBF3 (11725865_a_at) / RFU CAMK2N1 (11719241_x_at) / Fold change /veh CAMK2N1 (11719241_x_at) / RFU C5orf56 (11738088_a_at) / Fold change /veh C5orf56 (11738088_a_at) / RFU OLFML3 (11715873_a_at) / Fold change /veh OLFML3 (11715873_a_at) / RFU LOC100653217 /// NTM (11731650_a_at) / Fold change /veh LOC100653217 /// NTM (11731650_a_at) / RFU MAPK11 (11762145_a_at) / Fold change /veh MAPK11 (11762145_a_at) / RFU FIZ1 (11724087_x_at) / Fold change /veh FIZ1 (11724087_x_at) / RFU OASL (11726364_x_at) / Fold change /veh OASL (11726364_x_at) / RFU SOX15 (11748057_x_at) / Fold change /veh SOX15 (11748057_x_at) / RFU CD79A (11719716_a_at) / Fold change /veh CD79A (11719716_a_at) / RFU HIST1H1D (11736915_at) / Fold change /veh HIST1H1D (11736915_at) / RFU CASKIN2 (11723855_a_at) / Fold change /veh CASKIN2 (11723855_a_at) / RFU LOC730098 (11760151_x_at) / Fold change /veh LOC730098 (11760151_x_at) / RFU OR4N2 (11742367_at) / Fold change /veh OR4N2 (11742367_at) / RFU PRRT2 (11749266_a_at) / Fold change /veh PRRT2 (11749266_a_at) / RFU SNX32 (11753110_a_at) / Fold change /veh SNX32 (11753110_a_at) / RFU CDHR5 (11726645_a_at) / Fold change /veh CDHR5 (11726645_a_at) / RFU RCAN1 (11760418_a_at) / Fold change /veh RCAN1 (11760418_a_at) / RFU FAM167A (11723789_a_at) / Fold change /veh FAM167A (11723789_a_at) / RFU FAM26E (11764081_at) / Fold change /veh FAM26E (11764081_at) / RFU ISYNA1 (11749810_s_at) / Fold change /veh ISYNA1 (11749810_s_at) / RFU ACY1 (11761880_at) / Fold change /veh ACY1 (11761880_at) / RFU 11764098_at / Fold change /veh 11764098_at / RFU SAMD14 (11745864_x_at) / Fold change /veh SAMD14 (11745864_x_at) / RFU NPB (11741838_a_at) / Fold change /veh NPB (11741838_a_at) / RFU TMPRSS6 (11731388_a_at) / Fold change /veh TMPRSS6 (11731388_a_at) / RFU KRTAP10-2 (11738614_at) / Fold change /veh KRTAP10-2 (11738614_at) / RFU ARHGAP8 /// PRR5-ARHGAP8 (11727945_x_at) / Fold change /veh ARHGAP8 /// PRR5-ARHGAP8 (11727945_x_at) / RFU KRTAP5-7 /// NADSYN1 (11734609_at) / Fold change /veh KRTAP5-7 /// NADSYN1 (11734609_at) / RFU RASL12 (11751679_a_at) / Fold change /veh RASL12 (11751679_a_at) / RFU CDKN2B (11736163_a_at) / Fold change /veh CDKN2B (11736163_a_at) / RFU PRF1 (11729649_at) / Fold change /veh PRF1 (11729649_at) / RFU, ZNF638 /// ZNF638-IT1 / Fold change vs veh, ZNF638 /// ZNF638-IT1 / RFU, PANK3 / Fold change vs veh, PANK3 / RFU, SH3YL1 / Fold change vs veh, SH3YL1 / RFU, ZEB2 / Fold change vs veh, ZEB2 / RFU, NRIP1 / Fold change vs veh, NRIP1 / RFU, PTTG1IP / Fold change vs veh, PTTG1IP / RFU, CAPN2 / Fold change vs veh, CAPN2 / RFU, MED14 / Fold change vs veh, MED14 / RFU, SNORA58 / Fold change vs veh, SNORA58 / RFU, C1orf63 / Fold change vs veh, C1orf63 / RFU, LRRFIP1 / Fold change vs veh, LRRFIP1 / RFU, NDUFAF7 / Fold change vs veh, NDUFAF7 / RFU, SLC12A2 / Fold change vs veh, SLC12A2 / RFU, IBTK / Fold change vs veh, IBTK / RFU, ESF1 / Fold change vs veh, ESF1 / Fold change vs veh, TMEM50B / RFU, TAOK1 / Fold change vs veh, TAOK1 / RFU, ACBD3 / Fold change vs veh, ACBD3 / RFU, TMA16 / Fold change vs veh, TMA16 / RFU, RWDD3 / Fold change vs veh, RWDD3 / RFU, BCAT1 / Fold change vs veh, BCAT1 / RFU, EDEM3 / Fold change vs veh, EDEM3 / RFU, TMEM33 / Fold change vs veh, TMEM33 / RFU, WDR75 / Fold change vs veh, WDR75 / RFU, AHCTF1 / Fold change vs veh, AHCTF1 / RFU, TFRC / Fold change vs veh, TFRC / RFU, ZDHHC17 / Fold change vs veh, ZDHHC17 / RFU, NOM1 / Fold change vs veh, NOM1 / RFU, ARL8B / Fold change vs veh, ARL8B / RFU, ZBTB11 / Fold change vs veh, ZBTB11 / RFU, TAMM41 / Fold change vs veh, TAMM41 / RFU, KIAA1704 /// LOC100996395 / Fold change vs veh, KIAA1704 /// LOC100996395 / RFU, ING1 / Fold change vs veh, ING1 / RFU, TRMT61B / Fold change vs veh, TRMT61B / RFU, FUBP3 / Fold change vs veh, FUBP3 / RFU, TP53 / Fold change vs veh, TP53 / RFU, TNKS2 / Fold change vs veh, TNKS2 / RFU, ZFP14 / Fold change vs veh, ZFP14 / RFU, ACTR2 / Fold change vs veh, ACTR2 / RFU, PPP3R1 / Fold change vs veh, PPP3R1 / RFU, PIK3R1 / Fold change vs veh, PIK3R1 / RFU, HNRNPA1 / Fold change vs veh, HNRNPA1 / RFU, RNF170 / Fold change vs veh, RNF170 / RFU, ZNF28 / Fold change vs veh, ZNF28 / RFU, RNGTT / Fold change vs veh, RNGTT / RFU, OGT / Fold change vs veh, OGT / RFU, BRD1 / Fold change vs veh, BRD1 / RFU, MARS / Fold change vs veh, MARS / RFU, ZNF655 / Fold change vs veh, ZNF655 / RFU, FAHD1 / Fold change vs veh, FAHD1 / RFU, BDP1 / Fold change vs veh, BDP1 / RFU, LRRCC1 / Fold change vs veh, LRRCC1 / RFU, ARID1A / Fold change vs veh, ARID1A / RFU, ZNF146 / Fold change vs veh, ZNF146 / RFU, ZNF330 / Fold change vs veh, ZNF330 / RFU, GPN3 / Fold change vs veh, GPN3 / RFU, C9orf123 / Fold change vs veh, C9orf123 / RFU, N4BP2L2 / Fold change vs veh, N4BP2L2 / RFU, ARFIP1 / Fold change vs veh, ARFIP1 / RFU, FAM179B / Fold change vs veh, FAM179B / RFU, BCL10 / Fold change vs veh, BCL10 / RFU, UHRF1BP1L / Fold change vs veh, UHRF1BP1L / RFU, BET1 / Fold change vs veh, BET1 / RFU, CNOT2 / Fold change vs veh, CNOT2 / RFU, ZNF268 / Fold change vs veh, ZNF268 / Fold change vs veh, ZNF507 / RFU, DGCR2 / Fold change vs veh, DGCR2 / RFU, WDSUB1 / Fold change vs veh, WDSUB1 / Fold change vs veh, HSP90B1 /// MIR3652 / RFU, ADSS / Fold change vs veh, ADSS / RFU, GK / Fold change vs veh, GK / RFU, ZNF148 / Fold change vs veh, ZNF148 / RFU, TAF9 / Fold change vs veh, TAF9 / RFU, SLC1A5 / Fold change vs veh, SLC1A5 / RFU, SLMO2 / Fold change vs veh, SLMO2 / RFU, ABCC4 / Fold change vs veh, ABCC4 / RFU, LOC101060439 /// RAP1B / Fold change vs veh, LOC101060439 /// RAP1B / RFU, RFX7 / Fold change vs veh, RFX7 / RFU, GTPBP10 / Fold change vs veh, GTPBP10 / RFU, CNEP1R1 / Fold change vs veh, CNEP1R1 / RFU, BIVM-ERCC5 /// ERCC5 / Fold change vs veh, BIVM-ERCC5 /// ERCC5 / RFU, ILF3 / Fold change vs veh, ILF3 / RFU 11762660_at / Fold change /veh 11762660_at / RFU VCAN (11757783_s_at) / Fold change /veh VCAN (11757783_s_at) / RFU DDX43 (11728927_at) / Fold change /veh DDX43 (11728927_at) / RFU KRT8 (11758188_x_at) / Fold change /veh KRT8 (11758188_x_at) / RFU NKD1 (11759106_at) / Fold change /veh NKD1 (11759106_at) / RFU SRD5A1 (11742802_a_at) / Fold change /veh SRD5A1 (11742802_a_at) / RFU TPSAB1 /// TPSB2 (11721975_s_at) / Fold change /veh TPSAB1 /// TPSB2 (11721975_s_at) / RFU GSTM3 (11746129_a_at) / Fold change /veh GSTM3 (11746129_a_at) / RFU IL23R (11737362_x_at) / Fold change /veh IL23R (11737362_x_at) / RFU TMEM51 (11727254_a_at) / Fold change /veh TMEM51 (11727254_a_at) / RFU PIWIL2 (11732686_x_at) / Fold change /veh PIWIL2 (11732686_x_at) / RFU ORM1 (11744905_x_at) / Fold change /veh ORM1 (11744905_x_at) / RFU CCDC152 (11743942_at) / Fold change /veh CCDC152 (11743942_at) / RFU ECM1 (11717891_a_at) / Fold change /veh ECM1 (11717891_a_at) / RFU IL23R (11748794_a_at) / Fold change /veh IL23R (11748794_a_at) / RFU TNFAIP8L3 (11732012_x_at) / Fold change /veh TNFAIP8L3 (11732012_x_at) / RFU MBOAT4 (11741988_at) / Fold change /veh MBOAT4 (11741988_at) / RFU 11764193_at / Fold change /veh 11764193_at / RFU TMEM53 (11763286_at) / Fold change /veh TMEM53 (11763286_at) / RFU MAGEB2 (11727129_at) / Fold change /veh MAGEB2 (11727129_at) / RFU TMEM200A (11744735_a_at) / Fold change /veh TMEM200A (11744735_a_at) / RFU CCDC152 (11751479_a_at) / Fold change /veh CCDC152 (11751479_a_at) / RFU FAM211A (11726209_a_at) / Fold change /veh FAM211A (11726209_a_at) / RFU RGS16 (11746705_a_at) / Fold change /veh RGS16 (11746705_a_at) / RFU VCAN (11755009_s_at) / Fold change /veh VCAN (11755009_s_at) / RFU RHOB (11743442_s_at) / Fold change /veh RHOB (11743442_s_at) / RFU RGS16 (11720943_a_at) / Fold change /veh RGS16 (11720943_a_at) / RFU RGS16 (11720944_at) / Fold change /veh RGS16 (11720944_at) / RFU, VPS4B / Fold change vs veh, VPS4B / RFU, CREB1 / Fold change vs veh, CREB1 / RFU, DNAJC13 / Fold change vs veh, DNAJC13 / RFU, GNAQ / Fold change vs veh, GNAQ / RFU, CDK5R1 / Fold change vs veh, CDK5R1 / RFU, ZRANB3 / Fold change vs veh, ZRANB3 / RFU, CUL4A / Fold change vs veh, CUL4A / RFU, CCNY / Fold change vs veh, CCNY / RFU, UFL1 / Fold change vs veh, UFL1 / RFU, COG3 / Fold change vs veh, COG3 / RFU, DIAPH2 / Fold change vs veh, DIAPH2 / RFU, SKA2 / Fold change vs veh, SKA2 / RFU, AFF3 / Fold change vs veh, AFF3 / RFU, LMF1 / Fold change vs veh, LMF1 / RFU, IPO11 / Fold change vs veh, IPO11 / RFU, DFFB / Fold change vs veh, DFFB / RFU, FOXP1 / Fold change vs veh, FOXP1 / RFU, CARD8 / Fold change vs veh, CARD8 / RFU, STRN3 / Fold change vs veh, STRN3 / RFU, ADK / Fold change vs veh, ADK / RFU, RASSF2 / Fold change vs veh, RASSF2 / RFU, WIPF1 / Fold change vs veh, WIPF1 / RFU, LARP1B / Fold change vs veh, LARP1B / RFU, RASA1 / Fold change vs veh, RASA1 / RFU, RB1 / Fold change vs veh, RB1 / RFU, PPFIA1 / Fold change vs veh, PPFIA1 / RFU, MAT2A / Fold change vs veh, MAT2A / RFU, CCT5 / Fold change vs veh, CCT5 / RFU, WDR92 / Fold change vs veh, WDR92 / RFU, CUX1 / Fold change vs veh, CUX1 / RFU, TTC7A / Fold change vs veh, TTC7A / RFU, TMEM135 / Fold change vs veh, TMEM135 / RFU, DEPTOR / Fold change vs veh, DEPTOR / RFU, CPM / Fold change vs veh, CPM / RFU, DNAJB6 / Fold change vs veh, DNAJB6 / RFU, CACNA2D3 / Fold change vs veh, CACNA2D3 / RFU, DTX4 / Fold change vs veh, DTX4 / RFU, TFCP2 / Fold change vs veh, TFCP2 / RFU, GMCL1 /// GMCL1P1 / Fold change vs veh, GMCL1 /// GMCL1P1 / RFU, AEBP2 / Fold change vs veh, AEBP2 / RFU, SNHG1 /// SNORD22 /// SNORD25 /// SNORD26 /// SNORD27 /// SNORD28 /// SNORD29 /// SNORD31 / Fold change vs veh, SNHG1 /// SNORD22 /// SNORD25 /// SNORD26 /// SNORD27 /// SNORD28 /// SNORD29 /// SNORD31 / Fold change (Aza/veh), C12orf56 (ProbeSet 11735607_a_at) / Fold change (ACY-1035/veh), C12orf56 (ProbeSet 11735607_a_at) / Fold change (Aza/veh), FGFR1OP (ProbeSet 11751329_s_at) / Fold change (ACY-1035/veh), FGFR1OP (ProbeSet 11751329_s_at) / Fold change (Aza/veh), VPS36 (ProbeSet 11739960_a_at) / Fold change (ACY-1035/veh), VPS36 (ProbeSet 11739960_a_at) / RFU SYPL1 (11715823_x_at) / Fold change /veh SYPL1 (11715823_x_at) / RFU IGFBP7 (11715501_s_at) / Fold change /veh IGFBP7 (11715501_s_at) / RFU REEP3 (11722064_at) / Fold change /veh REEP3 (11722064_at) / RFU IGLL1 (11728026_x_at) / Fold change /veh IGLL1 (11728026_x_at): dose or concentration left out as unconfirmed
Conditions: ProbeSet 11718977_a_at; LIST B

With `Nc1ncn([C@@H]2O[C@H](CO)[C@@H](O)[C@H]2O)c(=O)n1` [azacitidine] the “Fold change vs veh, CAPN2” value was 0.92.
